According to patent publication US6602676B1, “Testing method” (Milk Development Council, priority 1999, dated 2003):

System: cows with luteal P4 insufficiency
Test: Study II: pregnancy rate after P4 supplementation with CIDR on Day 5 post AI in cows with luteal P4 insufficiency
Type: in vivo, Holstein-Friesian cows
Conditions: mean milk P4 on Day 5 post AI 1 to 1.99 ng/ml; CIDR inserted Day 5 post AI for seven days
Protocol: Milk samples for P4 assay and reproductive data were collected from British Friesian and Holstein-Friesian cows in seven commercial herds. The cows were housed in a free-stall system and fed rations to meet their production and maintenance requirements. Data on calving date, parity, AI date and pregnancy were recorded. For the preliminary study, milk samples were collected daily for P4 determination from Day 7 postpartum until 100 days of the next gestation. The sampling protocol for animals in Studies I and II was limited to three milk samples per animal on Days 0, 5 and 24 post AI. […]
Milk P4 concentrations in an un-extracted aliquot of whole milk were measured using either radio immunoassay (RIA) as described by Lamming and Bulman (Lamming, G. E. and D. C. Bulman (1976) Br. Vet. J. 132: 507-517) and Bulman and Lamming (Bulman D. C. and G. E. Lamming (1978) J. Reprod. Fertil. 54: 447-458) or enzyme linked immunosorbent assay (ELISA) kit (Ridgeway Science Ltd., Gloucestershire, UK) as illustrated by Darwash et al. (Darwash A. O et al (1999b) Anim Sci. (in press)). All samples and quality controls (QC) were assayed in duplicate and the mean value of both readings were used to indicate milk P4 concentrations. […]
Following determination of pregnancy, the accuracy of using milk P4 concentrations on Day 24 post AI to predict pregnancy rates was calculated. […]

CC(=O)[C@H]1CC[C@H]2[C@@H]3CCC4=CC(=O)CC[C@]4(C)[C@H]3CC[C@]12C [P4, progesterone]
Pregnancy (%), treated: 57.9%
